{"source": "patent US20250360167A1", "about": "(Keryx Biopharmaceuticals, Inc., priority 2013, published 2025)", "key": {"[1]": {"tested_on": "transferrin saturation (TSAT)", "assay": "Phase 3 trial (Example 1): TSAT", "assay_type": "in vivo, human", "design": "TSAT, Mean / TSAT, Median / TSAT, Change from Baseline, Mean / TSAT, Change from Baseline, Median / TSAT, LS Mean / TSAT, Treatment Differences, LS Mean (KRX-0502) − LS Mean (control): unit not given here", "settings": "for TSAT, Mean / TSAT, Median / TSAT, LS Mean / TSAT, Change from Baseline, Mean / TSAT, Change from Baseline, Median / TSAT, Treatment Differences, LS Mean (KRX-0502) − LS Mean (control): Table 16", "text": "Iron studies including serum iron, ferritin, TSAT, and total iron-binding capacity were done at Screening (Visit 0); at the Randomization Visit (Visit 4); at Visits 7 (Week 4), 9 (Week 8), 11 (Week 12), 12 (Week 16), 13 (Week 20), 14 (Week 24), 15 (Week 28), 16 (Week 32), 17 (Week 36), 18 (Week 40), 19 (Week 44), 20 (Week 48), and 21 (Week 52) of the 52-week Safety Assessment Period; and at Visit 25 (Week 56) of the Efficacy Assessment Period.\nChange from baseline in TSAT at Week 52 as compared to baseline (Visit 4). This variable will be analyzed using LOCF methodology. ANCOVA will be employed. The model will include treatment (fixed effect), and baseline (covariate). A sensitivity analysis will be performed using MMRM method.\n• 1. Change in serum calcium concentration at Weeks 12, 24, 36, 48, and 52 as compared to baseline (Visit 4). This variable will be analyzed using LOCF methodology. ANCOVA will be employed. The model will include treatment (fixed effect), and baseline (covariate). • 2. Change in ferritin, and TSAT at Weeks 12, 24, 36 and 48 as compared to baseline (Visit 4). This variable will be analyzed using LOCF methodology. ANCOVA will be employed. The model will include treatment (fixed effect), and baseline (covariate). • 3. Change in serum iron and TIBC at Weeks 12, 24, 36, 48, and 52 as compared to baseline (Visit 4). This variable will be analyzed using LOCF methodology. ANCOVA will be employed. The model will include treatment (fixed effect), and baseline (covariate). • 4. Change in Ca x P product at Weeks 12, 24, 36, 48, and 52 as compared to baseline (Visit 4). This variable will be analyzed using LOCF methodology. ANCOVA will be employed. The model will include treatment (fixed effect), and baseline (covariate). • 5. Change in iPTH at Weeks 12, 36, 52, and 56 as compared to baseline (Visit 4). This variable will be analyzed using LOCF methodology. ANCOVA will be employed. The model will include treatment (fixed effect), and baseline (covariate). • 6. Change in serum […], vitamin A, vitamin B-12, vitamin E, vitamin K and folic acid at Weeks 12, 36, and 52 as compared to baseline (Visit 4). This variable will be analyzed using LOCF methodology. ANCOVA will be employed. The model will include treatment (fixed effect), and baseline (covariate). • 7. Change in serum bicarbonate concentration at Weeks 12, 36, and 52 as compared to baseline (Visit 4). This variable will be analyzed using LOCF methodology. ANCOVA will be employed. The model will include treatment (fixed effect), and baseline (covariate). • 8. Change in IV iron intake at Weeks 12, 24, 36, 48, and 52 as compared to baseline (Visit 4). This variable will be analyzed using LOCF methodology. ANCOVA will be employed. The model will include treatment (fixed effect), and baseline (covariate). • 9. Change in the use of EPO (ESA) administered at Weeks 12, 24, 36, 48, and 52 as compared to baseline (Visit 4). This variable will be analyzed using LOCF methodology. ANCOVA will be employed. The model will include treatment (fixed effect), and baseline (covariate). • 10. Change in the use of Vitamin D supplementation (and its analogs) and Sensipar (cinacalcet) at Weeks 12, 24, 36, 48, and 52 as compared to baseline (Visit 4). This variable will be analyzed using LOCF methodology. ANCOVA will be employed. The model will include treatment (fixed effect), and baseline (covariate). • 11. Change in LDL, HDL, and triglycerides at Weeks 12, 36, and 52 as compared to baseline (Visit 4). This variable will be analyzed using LOCF methodology. ANCOVA will be employed. The model will include treatment (fixed effect), and baseline (covariate)."}, "[2]": {"assay": "Phase 3 trial (Example 1): cumulative EPO (ESA) administered to Week 52", "assay_type": "in vivo, human", "text": "The cumulative EPO (ESA) administrated from randomization to Week 52 will be compared between treatment groups. This variable will be similarly analyzed as the primary efficacy variable using ANCOVA method. The two-sided 95% confidence intervals of treatment differences for all above comparisons will be presented."}, "[3]": {"settings": "Day 0 Baseline, Safety Assessment Period"}}, "data": [{"substance": "iron (+3), x (1, 2, 3-propanetricarboxylic acid, 2-hydroxy-), y (H2O) [KRX-0502]", "values": [{"measurement": "Mean TSAT, LS Mean Difference from Active Control Group at Week 52", "setting": "[1]; ANCOVA, Table D", "result": 10, "unit": "%"}, {"measurement": "Mean TSAT", "setting": "[1]; Baseline (Day 0), Table D", "result": 31, "unit": "%"}, {"measurement": "TSAT, Mean", "setting": "[1]; [3]", "result": 31.0}, {"measurement": "TSAT, Median", "setting": "[1]; [3]", "result": 29.5}, {"measurement": "TSAT, LS Mean", "setting": "[1]; Week 12, ANCOVA", "result": 40.17}, {"measurement": "Mean TSAT", "setting": "[1]; Week 12, LOCF, Table D", "result": 40, "unit": "%"}, {"measurement": "TSAT, Change from Baseline, Mean", "setting": "[1]; Week 12", "result": 9.2}, {"measurement": "TSAT, Change from Baseline, Median", "setting": "[1]; Week 12", "result": 7.0}, {"measurement": "TSAT, Mean", "setting": "[1]; Week 12", "result": 40.2}, {"measurement": "TSAT, Median", "setting": "[1]; Week 12", "result": 37.0}, {"measurement": "TSAT, Treatment Differences, LS Mean (KRX-0502) − LS Mean (control)", "setting": "[1]; Week 12", "result": 8.74}, {"measurement": "TSAT, LS Mean", "setting": "[1]; Week 24, ANCOVA", "result": 39.90}, {"measurement": "Mean TSAT", "setting": "[1]; Week 24, LOCF, Table D", "result": 40, "unit": "%"}, {"measurement": "TSAT, Change from Baseline, Mean", "setting": "[1]; Week 24", "result": 8.9}, {"measurement": "TSAT, Change from Baseline, Median", "setting": "[1]; Week 24", "result": 7.0}, {"measurement": "TSAT, Mean", "setting": "[1]; Week 24", "result": 39.9}, {"measurement": "TSAT, Median", "setting": "[1]; Week 24", "result": 38.0}, {"measurement": "TSAT, Treatment Differences, LS Mean (KRX-0502) − LS Mean (control)", "setting": "[1]; Week 24", "result": 8.28}, {"measurement": "TSAT, LS Mean", "setting": "[1]; Week 36, ANCOVA", "result": 39.80}, {"measurement": "Mean TSAT", "setting": "[1]; Week 36, LOCF, Table D", "result": 40, "unit": "%"}, {"measurement": "TSAT, Change from Baseline, Mean", "setting": "[1]; Week 36", "result": 8.8}, {"measurement": "TSAT, Change from Baseline, Median", "setting": "[1]; Week 36", "result": 7.0}, {"measurement": "TSAT, Mean", "setting": "[1]; Week 36", "result": 39.8}, {"measurement": "TSAT, Median", "setting": "[1]; Week 36", "result": 37.0}, {"measurement": "TSAT, Treatment Differences, LS Mean (KRX-0502) − LS Mean (control)", "setting": "[1]; Week 36", "result": 9.44}, {"measurement": "TSAT, LS Mean", "setting": "[1]; Week 48, ANCOVA", "result": 40.60}, {"measurement": "Mean TSAT", "setting": "[1]; Week 48, LOCF, Table D", "result": 41, "unit": "%"}, {"measurement": "TSAT, Change from Baseline, Mean", "setting": "[1]; Week 48", "result": 9.6}, {"measurement": "TSAT, Change from Baseline, Median", "setting": "[1]; Week 48", "result": 7.0}, {"measurement": "TSAT, Mean", "setting": "[1]; Week 48", "result": 40.6}, {"measurement": "TSAT, Median", "setting": "[1]; Week 48", "result": 38.0}, {"measurement": "TSAT, Treatment Differences, LS Mean (KRX-0502) − LS Mean (control)", "setting": "[1]; Week 48", "result": 11.17}, {"measurement": "TSAT, LS Mean", "setting": "[1]; Week 52, ANCOVA", "result": 39.35}, {"measurement": "Mean TSAT", "setting": "[1]; Week 52, LOCF, Table D", "result": 39, "unit": "%"}, {"measurement": "TSAT, Change from Baseline, Mean", "setting": "[1]; Week 52", "result": 8.3}, {"measurement": "TSAT, Change from Baseline, Median", "setting": "[1]; Week 52", "result": 6.0}, {"measurement": "TSAT, Mean", "setting": "[1]; Week 52", "result": 39.4}, {"measurement": "TSAT, Median", "setting": "[1]; Week 52", "result": 35.0}, {"measurement": "TSAT, Treatment Differences, LS Mean (KRX-0502) − LS Mean (control)", "setting": "[1]; Week 52", "result": 9.66}, {"measurement": "Mean TSAT, % Change from Baseline", "setting": "[1]; Week 52, relative change, Table D", "result": 25.8, "unit": "%"}, {"measurement": "Mean TSAT, Change from Baseline at Week 52", "setting": "[1]; absolute TSAT points, Table D", "result": 8, "unit": "%"}, {"measurement": "Average Daily EPO (ESA) intake based on the Cumulative EPO (ESA) intake to week 52 (Visit 4-21), Median", "setting": "[2]; Safety Assessment Period, Full Analysis Population, Method 1 to handle overlapping doses", "result": 724.24}, {"measurement": "Average Daily EPO (ESA) intake based on the Cumulative EPO (ESA) intake to week 52 (Visit 4-21), Mean", "setting": "[2]; Safety Assessment Period, Full Analysis Population, Method 1 to handle overlapping doses, SD in the next cell", "result": 1077.67}, {"measurement": "decrease in median ESA intake", "setting": "[2]; administered over a period of 52 weeks, stated as embodiment", "result": 27.1, "unit": "%"}]}]}
